From PMC10718076, “1,2-Disubstituted bicyclo[2.1.1]hexanes as saturated bioisosteres of ortho-substituted benzene” (Chemical Science, 2023)
Values after ≈ are worked out from the molar mass of the structure shown. Like-named read-outs stand apart in the source and are kept apart here.

What was measured:
[1] = Kinetic solubility in phosphate-buffered saline, pH 7.4; type: physicochemical; conditions: 25 °C, kinetic from dmso stock, phosphate-buffered saline; for solubility at 2 h: pH 7.4, aqueous buffer, Table S2, 2st batch
Procedure: Analysis of Aqueous Solubility […]
compound (Ondansetron) were assessed for kinetic solubility in phosphate -buffered saline, pH 7.4.
Phosphate buffered saline, pH 7.4 (Sigma -Aldrich, USA; Cat #P3813) […]
MultiScreen HTS 96 Well Filter Plates (Millipore, Ireland; Cat # MSSLBPC10) […]
Matrix Multichannel Electronic Pipette 2-125 μL, 5-250 μL, 15-1250 μL (Thermo Scientific, USA; […]
Vacuum pump (Millipore, USA; Model # XX5500000)
The measurements were performed using SpectraMax Plus reader in UV -Vis mode. Acquisition and […]
The measurements were performed using SpectraMax Paradigm reader in UV-Vis mode.
Acquisition and analysis of the data were performed using SoftMax Pro v.5.4 (Molecular Devices) […]
Kinetic solubility assay was performed according to the Enamine’s aqueous solubility SOP. Briefly, using a 20 mM stock solution of the compound in 100% DMSO dilutions were prepared to a theoretical concentration of 400 μM in duplicates in phosphate-buffered saline pH 7.4 […]
compound dilutions in PBS were further allowed to equilibrate at 25 °C on a thermostatic shaker for two hours and then filtered through HTS filter plates using a vacuum manifold. The filtrates of test compounds were diluted 2-fold with acetonitrile with 2% DMSO before measuring.
In parallel, compound dilutions in 50% acetonitrile/PBS were prepared to theoretical concentrations […]
calibration curves. Ondansetron was used as reference compound to control proper assay performance. 200 μl of each sample was transferred to 96-well plate and measured in 230-550 nm range with 5 nm step. The effective range of this assay is approximately 2-400 μM and the […]
The concentrations of compounds in PBS filtrate are calculated using a dedicated Microsoft Excel calculation script. Proper absorbance wavelengths for calculations are selected for each compound manually based on absorbance maximums (absolute absorbance unit values for the minimum and maximum concentration points within the 0 – 3 OD range). Each final dataset is visually evaluated by the operator, and goodness of fit (R2) is calculated for each calibration curve. […]
samples were diluted 2-fold with acetonitrile containing internal standard and were analyzed using the HPLC system coupled with a tandem mass spectrometer. The effective range of this assay is […]

[2] = test system: Aspergillus niger (strain VURV-F 822); assay: Antifungal disk diffusion method; type: cell-based; conditions: read-out: Diameter of inhibition zone
Procedure: Antifungal activity of the synthetic compounds using disk diffusion methods The compounds were tested for plant pathogens Aspergillus niger (strain VURV-F 822), which was received from Culture collection of microorganisms of Crop Research Institute (Prague, Czech […]
The synthetic compounds' antifungal activity was evaluated using a disk diffusion assay for testing filamentous fungi (CLSI M51-A) and broth microdilution antifungal susceptibility testing (EUCAST E.DEF 7.3.1; CLSI M38-A2)
[CLSI M51-A. Method for Antifungal Disk Diffusion Susceptibility Testing of Nondermatophyte Filamentous Fungi; Approved Guideline.CLSI document M51-A. Wayne, PA:
Clinical and Laboratory Standards Institute; 2010. This method is standardized for Altenaria, Aspergillus, Bipolaris, Fusarium, order Mucorales, etc.]
[CLSI M38-A2. 2008. Reference method for broth dilution antifungal susceptibility testing of filamentous fungi, 2nd ed Approved standard M38 -A2 Clinical and Laboratory Standards Institute, […]
Antifungal disk diffusion method
The solutions of fungicides and their analogues were diluted in dimethyl sulfoxide (DMSO) to […]
mg/mL for each test component. Sterile paper disks (ASPECT, Ukraine) were soaked with 10 μl of a solution of the appropriate fungicide from the highest concentration to the lowest.
The fungal strains were cultured on Petri dishes with Saburo dextrose agar (Condalab, Spain) and incubated at 25 °C for 5 days. Sterile Dulbecco's phosphate -buffered saline (DPBS) with 0,1 % Tween 20 was used to cover colonies of fungus for obtained conidia l suspension. Suspension of conidia was adjusted to inoculums 2×10^5 conidia/mL by sterile DPBS.
For antifungal disk diffusion test we used square Petri dishes (FALCON A Corning Brand, USA). The conidial suspension (0.5 mL) was added to Petri dishes with Saburo dextrose agar. The suspension was evenly distributed over the surface of the nutrient medium with a glass spatula.
After the surface of the inoculated medium was dry, the disks with different concentrations of testing compounds were added to the Petri dishes. Each compound was tested in triplicate at different concentrations. Growth control was a disk with 10 μl of DMSO, which was used for test […]
Petri dishes incubated at 25 °C for 72 h. The test compounds at known concentrati on into contact with an inoculated medium then exert a growth-inhibiting effect then a clear zone (the zone of […]
inhibition) appears around the test product. The diameter of a clear zone around the well is […]
If the fungal strain is susceptible to the antifungal agent, then a zone of inhibition appears on the agar plate. If it is resistant to the test compound, then no zone is evident. The size of the zone of inhibition is usually related to the level of antifungal activity present in the compound – a larger […]
The growth rate of all strains for each concentration of test compounds was determined visually and compared with the growth of control.
Broth microdilution antifungal susceptibility testing
A 96-well CELLSTAR plate (sterile, flat-bottomed, polystyrene, transparent) was used to determine MIC by broth microdilution method. Also, dabble straight RPMI-1640 medium with 2% glucose (2x RPMI 2%G) was used for this method. Spore suspension for plate inoculation was prepared according to the method described above for the disc diffusion method.
The each well in the plate contained 49 μl of medium (2x RPMI 2%G), 50 μl of inoculum (prepared in DPBS) and 1 μl of the stock solution of the test substance. Positive control wells contained 50 μl medium and 50 μl inoculum, and sterile control wells contained 50 μl medium and […]
To determine the MIC by the microdilution method, a series of stock solutions of fungicides and their analogues in DMSO with the following concentrations were prepared: 3.2 mg/mL, 1.6 mg/mL, […]
1 μl of the stock solutions of the test substances were added to each well to obtain the following […]
Immediately after adding all the components to the plates, the optical density was measured at […]

[3] = Metabolic stability in human liver microsomes; conditions: both, liver microsomes (pooled); for remaining at 40 min, 2 µM: Mean of 2, 40 min

Work on `Cn1cc(C(=O)NC2CC3CC2(c2cc(F)c(F)c(F)c2)C3)c(C(F)F)n1` (stereo not shown) [Compound 30] yielded a solubility kinetic at 2 h ([1]; aqueous buffer, pH 7.4, read-out: Sol.: experimental kinetic solubility) of 27 µM (≈ 10.4 µg/mL), a solubility at 2 h ([1]; read-out: PBS solubility, pH 7.4, Incubation 1) of 25 µM (≈ 9.63 µg/mL) and a solubility at 2 h ([1]; read-out: PBS solubility, pH 7.4, Incubation 2) of 28 µM (≈ 10.8 µg/mL). It also gave a solubility at 2 h ([1]; read-out: PBS solubility, pH 7.4, Mean) of 27 µM (≈ 10.4 µg/mL), a zone of inhibition at 4 µg/mL ([2]; Concentration 0.004 mg/mL, 0 = absence of antifungal activity, Boscalid, Fluxapyroxad, Bixafen marked st) of 0 mm and a zone of inhibition at 8 µg/mL ([2]; Concentration 0.008 mg/mL, 0 = absence of antifungal activity) of 0 mm. The zone of inhibition at 16 µg/mL ([2]; Concentration 0.016 mg/mL, 0 = absence of antifungal activity) was 0 mm, the zone of inhibition at 30 µg/mL ([2]; Concentration 0.03 mg/mL, 0 = absence of antifungal activity, (±)-29 marked st) was 0 mm and the zone of inhibition at 60 µg/mL ([2]; Concentration 0.06 mg/mL, 0 = absence of antifungal activity, Fluxapyroxad, Bixafen, (±)-29 marked st) was 0 mm. For the same compound, the zone of inhibition at 120 µg/mL ([2]; Concentration 0.12 mg/mL, (±)-28 marked st (static growth)) was 10 ± 0.5 mm, the zone of inhibition at 250 µg/mL ([2]; Concentration 0.25 mg/mL, (±)-28 marked st (static growth, secondary growth of mycelium)) was 8.5 ± 1 mm and the zone of inhibition at 500 µg/mL ([2]; Concentration 0.5 mg/mL, 10 μl per disk) was 13.8 ± 0.75 mm. It also gave a zone of inhibition at 1000 µg/mL ([2]; Concentration 1 mg/mL, 10 μl per disk) of 20.5 ± 1 mm, a zone of inhibition at 2000 µg/mL ([2]; Concentration 2 mg/mL, 10 μl per disk) of 24.2 ± 0.75 mm and a D (Table S5, injection 1, octanol/PBS pH 7.4) of 4.08E+03. It also gave a D (Table S5, injection 2, octanol/PBS pH 7.4) of 4.11E+03, a D (Table S5, injection 3, octanol/PBS pH 7.4) of 4.44E+03 and a microsomal CLint at 2 µM ([3]; pH 7.4) of 61 µL/min/mg. It also gave a remaining at 40 min, 2 µM ([3]; pH 7.4, % Remaining without cofactor, no NADPH cofactor, Table S6, 1st batch) of 109%, a remaining at […], 2 µM ([3]; pH 7.4, % Remaining, Mean of 2, 7 min, Table S6, 1st batch) of 70% and a remaining at […], 2 µM ([3]; pH 7.4, % Remaining, Mean of 2, 15 min, Table S6, 1st batch) of 53%. The remaining at 25 min, 2 µM ([3]; pH 7.4, % Remaining, Mean of 2, 25 min, Table S6, 1st batch) was 43%, the remaining at 40 min, 2 µM ([3]; pH 7.4, % Remaining, Table S6, 1st batch) was 35% and the k el at 2 µM ([3]; pH 7.4, kel, Table S6, 1st batch) was 0.000417 s⁻¹. For the same compound, the half-life at 2 µM ([3]; pH 7.4, t1/2, Table S6, 1st batch) was 27.3 min.
